Where “and” joins values, the source holds several entries; their conditions need not be identical. Equal values may be shown once. Entries after “also recorded” stand apart in the source; their conditions may differ. Non-standard residues stand in square brackets, D forms with d. Residues, ends and D or L forms follow the SMILES beside them. *: point of attachment. Dolaproine = CO[C@@H]([C@@H]1CCCN1)[C@@H](C)C(=O)O; Dil = CC[C@H](C)[C@H](NC)[C@@H](CC(=O)O)OC; X1 = C[C@@H](N*)[C@@H](O)c1ccccc1; NMeV = CN[C@H](C(=O)O)C(C)C
Legend:
[1] = system: 4MOSC1; experiment: Cytotoxicity, Alamar Blue assay; type: cell-based, murine; details: 4MOSC1, 72 h drug exposure, one value per biological replicate, read-out: IC50 values
Procedure: (§1) Murine colorectal (MC38 (ENH204-FP)) cancer cell lines were obtained from Kerafast. Murine head and neck MOC1 and MOC2 were generously provided by Dr. R. Uppaluri. CAL27 PIK3CA H1047R expressing cells and 4MOSC1 cells were generated in Dr. Gutkind’s laboratory and previously characterized[42],[55]. […] MC38 cells were cultured in DMEM supplemented with 10% FBS, 1 mM sodium pyruvate (Gibco), 1% non-essential amino acids (Gibco), and 10 mM HEPES (Gibco). MOC1 and MOC2 cells were cultured in IMDM (Lonza)/F-12K nutrient mixture at a 2:1 mixture with 5% FBS, 5 ng/ml EGF (EMD Millipore), 400 ng/ml hydrocortisone (Sigma), and […] insulin (Sigma). On receipt, each cell line was expanded, cryopreserved as low passage stocks, and routinely tested for mycoplasma. Cisplatin (Enzo Biosciences), paclitaxel (Sigma), and MMAE (Concortis) were reconstituted in DMSO. Clinical-grade CDX3379 was provided by Celldex. Clinical grade cetuximab (Erbitux, Lilly Medical) was obtained from UCSD Moores Cancer Center Pharmacy.
(§2) Cells were plated in 96-well plates and exposed to a drug concentration range for 72 h. Alamar Blue was added to the cells and allowed to incubate for 2–4 h at 37 °C. Plates were analyzed using a plate reader with fluorescence measured at 560 nm. Fractional survival was normalized to untreated control cell fluorescent values. Drug IC50 was calculated using Prism software (GraphPad, La Jolla, CA). Cell viability, cytotoxicity and apoptosis were also measured by ApoTox-Glo Triplex Assay (Promega).

[2] = system: MC38; experiment: Cytotoxicity, Alamar Blue assay; type: cell-based, murine; details: MC38, 72 h drug exposure, one value per biological replicate, read-out: IC50 values
Procedure: as §1, §2

[3] = system: CAL27; experiment: Cytotoxicity, Alamar Blue assay; type: cell-based, human; details: 72 h drug exposure, one value per biological replicate, read-out: IC50 values
Procedure: as §1, §2

[4] = system: Detroit 562; experiment: Cytotoxicity, Alamar Blue assay; type: cell-based, human; details: Detroit 562, 72 h drug exposure, one value per biological replicate, read-out: IC50 values
Procedure: as §1, §2

[5] = system: B16 tumors; experiment: Subcutaneous tumor therapy, CDX3379-MMAE or CDX3379-MMAF with IR, mouse survival; type: in vivo, C57BL/6 mice
Procedure: MOC1, B16, LL/2, and MC38 tumor cells were injected subcutaneously into the hindlimbs of 6-week-old female C57BL/6 albino mice in 100 µl of 1:1 Matrigel (BD) and PBS solution. Fractionated IR was delivered focally to the tumor-bearing hindlimbs (3 Gy to MC38 tumors and 5 Gy to LL/2 and B16 tumors) as indicated in figure legends using a PXI X-RAD 225 XL irradiator at maximal dose rate of 3 Gy/min with a beam-conditioning aluminum filter (Precision X-ray Irradiation). For RAG1 KO studies, 6-week-old female Rag1^tm1Mom mice were injected subcutaneously with tumor cells in their hindlimbs (Jackson Labs). For CD8 depletion studies, mice were i.p. injected with anti-CD8 (BioXCell #BE0117) at 10 mg/kg on days −6, −5 and −4 tumor cell implant and then weekly starting on day after tumor cells were injected or control antibody. […] Tumor volumes were measured and calculated using the formula as ½ * length * width^2. Mice were sacrificed when tumor volume reached >1500 mm^3, maximal tumor volume approved on our protocol for subcutaneous tumors.

[6] = system: CAL27 and Detroit 562 tumor xenografts; details: immune-deficient mice with HER3 expressing human tumor xenografts
Procedure: (§3) All animal work was done in compliance with the University of California San Diego Institutional Animal Use and Care Committee under protocol #S15290. Mice were housed in individually ventilated and micro-isolator cages supplied with acidified water and fed 5053 irradiated PicoLab Rodent Diet 20. Temperature for laboratory mice in housing was 18–23 °C with humidity 40–60%. Housing room is maintained on a 12-h light/dark cycle. […] For imaging, mice were anesthetized (1:1 mixture of 100 mg/ml of ketamine and 5 mg/ml of midazolam). Animals were imaged using a Maestro Small Animal Imager (CRI) with excitation filter of 607/36 and 633 nm long pass emission filter with dichroic filter tuned to 670 nm for Cy5 images only. Imaging was done both with skin on and after skin removal to decrease autofluorescence and scattering. Exposure time for Cy5 signal capture for tumor models was as follows: CAL27 for 800 ms, MOC1 for 200 ms and MOC2 for 1500 ms.
(§4) Source data are provided in Source Data file.

[7] = system: MOC1, MOC2 and LL/2 tumors; details: immune-competent mice, not in HER3 negative LL/2 tumors
Procedure: as §3, §4

[8] = Blood clearance of Cy5-labeled CDX3379-MMAE (blood Cy5); type: in vivo, Nude mice; details: immune-deficient and immune-competent mice, i.v. Cy5-labeled CDX3379-MMAE, Cy5 as surrogate marker
Procedure: as §3

[9] = Tumor drug measurement (MMAE by LC-MS/MS) after ACPP-MMAE; type: in vivo, mouse; details: LL/2 and B16 tumors, 10 nmoles ACPP-MMAE i.v.
Procedure: For CDX3379-MMAE drug measurements, 6-week-old female NOD SCID (University of California San Diego Animal Care Program) were injected orthotopically into the tongue with 150,000 CAL27 PIK3CA H1047R expressing cells in 20 µl of DMEM. After 10 days, mice were intravenously (i.v.) injected through the tail vein with 2.5 nmole of CDX3379-MMAE in 50 µl of PBS. […] Tumors were excised on days indicated in figure legends, weighed, and homogenized in 10 v/w of 2% acetic acid in 1:1 acetonitrile:water with a point sonicator (Fisher Scientific) using an amplitude range of 5–15% for 20 s on ice. Homogenates were centrifuged ([…], 10 min), supernatants collected for drug concentration measurements using LC–MS/MS. Drug concentration was determined by LC–MS/MS with Luna-2 C18 column and Agilent Trap XCT mass spectrometer. For MMAE tissue concentrations, integrated ion currents for m/z 682.4, 496.4 and m/z 686.4, 506.4 extracted from fragmented m/z 740.4 and 718.4, respectively, were combined. The total ion current was fit to a standard curve generated for each drug to quantitate tissue drug concentration.

[10] = system: B16 tumors; design: species or system C57BL/6 mice; details: mouse, in vivo
Procedure: At harvest, tumors were isolated, minced, and re-suspended in FBS-free DMEM media supplemented with components of MACs tumor dissociation kit. Tissues were incubated for 15 min at 37 °C and mechanically digested using the gentle MACs Octo dissociator. Tissue suspensions were washed with fresh media and passed through a 100-µm strainer. Samples were split in half for immediate staining or stimulated with the Biolegend Cell Activation Cocktail (with Brefeldin A) for 3 h. Samples were washed with PBS and immediately processed for live/dead cell discrimination using BD LIVE/DEAD™ Fixable Blue Dead Cell Stain Kit. Cells were washed and stained for surface markers for 30 min at 4 °C. Intracellular staining was performed using the eBioscience FOXP3/Transcription Factor Buffer Set from Invitrogen and stained with intracellular antibodies. […] All antibodies were validated by the supplier. All flow cytometry data acquisition was done using BD LSRFortessa and analyzed using FlowJo software. […]
Representative flow cytometry plots to gate immune cells quantitated in Fig. 4a, b, 4d &
Supplementary Fig. 10b, c. b) Quantification of tumor immune cell identified by flow cytometry on […]
(Clone:GB11). In addition, RNA levelsof tumor granzyme-B was analyzed by qPCR. […]

Compound: CC[C@H](C)[C@@H]([C@@H](CC(=O)N1CCC[C@H]1[C@H](OC)[C@@H](C)C(=O)N[C@H](C)[C@@H](O)c1ccccc1)OC)N(C)C(=O)[C@@H](NC(=O)[C@@H](NC)C(C)C)C(C)C [MMAE, monomethyl auristatin E] (H-[NMeV]V[Dil][Dolaproine]-X1)
- IC50 [1]: 1.82 nM and 1.52 nM
- IC50 [2]: 14.4 nM and 14.9 nM and 30.4 nM
- IC50 [3]: 0.235 nM and 0.239 nM (2×) and 0.237 nM and 0.177 nM and 0.185 nM
- IC50 [4]: 0.253 nM and 0.25 nM and 0.189 nM and 0.195 nM

Compound: CDX3379-MMAE: anti-HER3 antibody CDX3379 with 4 MMAE per antibody via MC-VC-PABC linker, labeled with Cy5
- tumor control and survival, + IR ([5]; B16, 2.5 nmoles ADC x 2 doses + IR 5 Gy x 3): prolonged tumor control and survival; also recorded: superior to CDX3379-MMAF
- Mouse survival, status ([5]; with IR, individual mice, status at the day, Figure 3h): 1 and 0
- localization of i.v. injected Cy5-labeled ADC [6]: localized to tumor bearing hindlimbs
- localization of i.v. injected Cy5-labeled ADC [7]: localized to HER3 expressing murine syngeneic tumors
- time at which blood Cy5 signal returned to background fluorescence [8]: ≤ 7 days

Compound: cyclo(RGD)fc-MC-HN-peg8-e9-oPLGC(Me)AG-r9-c-(MC-VC-PABC-MMAE)-CONH2 [ACPP-MMAE]
- release of conjugated drug warhead in tumors [9]: efficiently released its conjugated drug warhead equally in LL/2 and B16 tumors
- CD8 T cell granzyme B [10]: increased CD8 T cell granzyme B at both the transcriptional and protein levels
- Immune checkpoint markers: GZMB, RNA [10]: 3.95 and 3.63

Source: publication PMC9256669, “Monomethyl auristatin antibody and peptide drug conjugates for trimodal cancer chemo-radio-immunotherapy” (Nature Communications, 2022)
